Starred links: 1 amine or outer side, 2 acyl side, 3 side chain; linkers in the order of their positions; H or OH if unused. Positions of bridges follow the written chain, without caps; N, C: chain ends. Non-standard residues stand in square brackets, D forms with d. Residues, ends and D or L forms follow the SMILES beside them. *: point of attachment. hTyr(3S-OH,4S-OH,3'-OSO3H) = N[C@H](C(=O)O)[C@H](O)[C@@H](O)c1ccc(O)c(OS(=O)(=O)O)c1; Orn(4R-OH,5R-OH) = O=C([C@H](C[C@@H](O)[C@@H](O)N[*:3])N[*:1])[*:2]; Pro(3S-OH,4S-Me) = C[C@H]1CN[C@H](C(=O)O)[C@H]1O; X1 = CCCCCOc1ccc(-c2cc(-c3ccc(C(=O)*)cc3)no2)cc1; Gln(3R-OH) = NC(=O)C[C@@H](O)[C@H](N)C(=O)O; Hyp = O=C(O)[C@@H]1C[C@@H](O)CN1
Columns and labels:
[1] = critically ill patients, 2 studies; cited from earlier work
[2] = healthy subjects; cited from earlier work
[3] = system: C. krusei; assay: MIC of micafungin for the patient's C. krusei; type: cell-based, Candida krusei; conditions: isolate of the patient
[4] = Local toxicity in the knee joint after intra-articular micafungin; type: in vivo, human; conditions: one patient; intra-articular instillation, local concentration 11mg/l
[5] = Micafungin concentration in joint (synovial) fluid of the patient after intra-articular instillation; type: in vivo, human; conditions: one patient; day 19; joint fluid aspirated 24 hours after intra-articular instillation of 3mg micafungin (trough); IA 3mg OD day 17 – day 24; single measurement
Experimental: (§1) C. krusei has been identified with the use of CHROMagar™ with subsequent identification by Maldi-TOF, with database MALDI BDAL Database version 8.0. Micafungin concentrations were measured (laboratory of pharmacy, University Hospital Nijmegen, the Netherlands) in serum and joint fluid. The concentrations in serum 12 hours after the administration of 100mg intravenously at day 13 and 16 of therapy were 4.5 and 1.5mg/L respectively and concentration in synovial fluid 24 hours after installation of 3mg of micafungin in the knee was 11mg/L at day 19, as well presented in Table 1. Reference concentrations of micafungin in serum derived from 2 studies in critically ill patients trough level 1.4–3.1 mg/L were described. […] Administration of 100mg once daily results in trough serum concentration levels of 2 mg-L [14]. In hematology patients reference concentrations after intravenous micafungin are available as well [15].

[6] = system: C. krusei knee arthritis; assay: Clinical outcome of C. krusei knee arthritis; type: in vivo, human; conditions: one patient; instillation of micafungin in the knee plus intravenous micafungin and arthroscopic debridement
Description: A week later, the patient was readmitted for a second course of chemotherapy and amphotericin-B oral solution was given to prevent a new episode of translocation of C. krusei. During this hospital stay they hit their left knee on the side of the bed. Their knee continued to be painful and as a knee effusion was noted three days after injury, the orthopedic surgeon was consulted. On physical examination a large effusion of their left knee was found. The joint was not visibly red, but was warm on palpation. Their temperature was 38.4° Celsius. A plain knee radiograph of the knee was normal. An aspiration of the affected knee was performed and the joint fluid was sent for culture, this day was considered as day 0. Day 1 the joint aspiration grew C. krusei for which intravenous micafungin was restarted at a dose of 100mg twice daily. As the patient was deeply thrombopenic as well as neutropenic at that time, no arthroscopic drainage and lavage was performed but instead the knee was repeatedly drained by needle aspiration. On the day of the first needle aspiration of the knee and for the next 10 days, blood cultures were positive for C. krusei as well. Furthermore, repeated needle aspirations of the knee continued to grow C. krusei. An echocardiography at day 6 was normal. […]

[7] = reconstitution in NaCl 0.9%; cited from earlier work
Description: Synovial fluid is a transudate of plasma, so dissolution of micafungin in synovial fluid will be likely. Moreover, diffusion from plasma to the synovial fluid will occur. Unfortunately, data about the extent of diffusion from plasma to the synovial fluid are not available. The possible side effects as well as the possible toxic effects on cartilage of micafungin when administered directly into a joint are unknown. However, we decided to administer micafungin through direct intra-articular instillation as, despite prolonged high-dose intravenous micafungin therapy, blood as well as synovial cul ...

[8] = Micafungin concentration in serum of the patient; type: in vivo, human; conditions: one patient, single measurement
Experimental: as §1, with “serum 12 hours after the administration of 100mg intravenously at day 13 and 16 of therapy were 4.5 and 1.5mg/L respectively” left out

For `CCCCCOc1ccc(-c2cc(-c3ccc(C(=O)N[C@H]4C[C@@H](O)[C@@H](O)NC(=O)[C@@H]5[C@@H](O)[C@@H](C)CN5C(=O)[C@H]([C@H](O)CC(N)=O)NC(=O)[C@H]([C@H](O)[C@@H](O)c5ccc(O)c(OS(=O)(=O)O)c5)NC(=O)[C@@H]5C[C@@H](O)CN5C(=O)[C@H]([C@@H](C)O)NC4=O)cc3)no2)cc1` [micafungin] (X1-[Orn(4R-OH,5R-OH)]T[Hyp][hTyr(3S-OH,4S-OH,3'-OSO3H)][Gln(3R-OH)][Pro(3S-OH,4S-Me)]; lactam 1-C), the “Reference concentration of micafungin in serum, trough level” value [1] is given as 1.4 to 3.1 mg/L, the Half-life [2] is given as 15 h and the Volume of distribution [2] is given as 0,2 L/kg. The “MIC of the C. krusei” value [3] was 0.125 µg/mL, the “Local toxicity of the joint” value [4] was “no local toxicity was observed” and the “Micafungin concentration in synovial fluid (joint)” value [5] was 11 mg/L. For the same molecule, the Clinical outcome [6] was “completely recovered”, the pH after reconstitution [7] was 5–7 and the “Micafungin concentration in serum” value ([8]; 12 hours after administration of 100mg intravenously, day 16 of therapy) was 1.5 mg/L. For the same molecule, the “Micafungin concentration (trough serum)” value ([8]; day 14, IV 100mg BID day 1 – day 15) was 4.5 mg/L and the “Micafungin concentration (trough serum)” value ([8]; day 17 (day of surgery), IV 200mg OD day 16 – day 32) was 1.5 mg/L.

— PMC7036544, “Persistent candida arthritis successfully treated with micafungin instillation and surgery. A case report” (Medical Mycology Case Reports, 2019)
